# Active and inactive are the calls of the source. The calls are words filed in the database; no cut-off is given here.
# Tests used:
# [1] = Cytotoxicity against MDCK cells incubated for 48 hrs assessed as reduction in cell viability by SRB assay; format: cell-based, Canis lupus familiaris; details: dog
# [2] = system: Influenza A virus; assay: Antiviral activity against Influenza A virus (A/Puerto Rico/8/1934(H1N1)) infected in MDCK cells assessed as reduction in virus-induced cytopathogenicity incubated for 48 hrs by SRB assay; format: functional, organism-based
# [3] = molecular target: Neuraminidase (Influenza A virus (A/Puerto Rico/8/1934(H1N1)), UniProt P03468); assay: Inhibition of neuraminidase in influenza A virus (A/Puerto Rico/8/1934(H1N1)) pre-incubated for 30 mins before NA-Star substrate addition for 30 mins by luminescence based assay
# [4] = system: Influenza A virus; assay: Antiviral activity against Influenza A virus (A/Puerto Rico/8/1934(H1N1)) infected in MDCK cells assessed as reduction in virus-induced cytopathogenicity at 1 ug/ml treated before virus infection and measured after 48 hrs by SRB assay relative to untreated control; format: functional
# [5] = system: Influenza A virus; assay: Antiviral activity against Influenza A virus (A/Puerto Rico/8/1934(H1N1)) infected in MDCK cells assessed as reduction in virus-induced cytopathogenicity at 1 ug/ml pre-incubated for 1 hr with virus before virus infection of cells and measured after 48 hrs by SRB assay; format: functional, organism-based
# [6] = system: Influenza A virus; assay: Antiviral activity against Influenza A virus (A/Victoria/3/1975(H3N2)) infected in MDCK cells assessed as reduction in virus-induced cytopathogenicity incubated for 48 hrs by SRB assay; format: functional, organism-based
# [7] = system: Influenza B virus; assay: Antiviral activity against Influenza B virus (B/Lee/40) infected in MDCK cells assessed as reduction in virus-induced cytopathogenicity incubated for 48 hrs by SRB assay; format: functional, organism-based; details: B/Lee/1940, MDCK
# [8] = system: Influenza B virus; assay: Antiviral activity against Influenza B virus (B/Maryland/1/59) infected in MDCK cells assessed as reduction in virus-induced cytopathogenicity incubated for 48 hrs by SRB assay; format: functional, organism-based
# [9] = system: Influenza A virus; assay: Antiviral activity against Influenza A virus (A/Puerto Rico/8/1934(H1N1)) infected in MDCK cells assessed as reduction in virus-induced cytopathogenicity treated 6 hrs before virus infection and measured after 48 hrs by SRB assay; format: functional, organism-based
# [10] = system: Influenza A virus; assay: Antiviral activity against Influenza A virus (A/Puerto Rico/8/1934(H1N1)) infected in MDCK cells assessed as reduction in virus-induced cytopathogenicity treated 2 hrs before virus infection and measured after 48 hrs by SRB assay; format: functional, organism-based
# [11] = system: Influenza A virus; assay: Antiviral activity against Influenza A virus (A/Puerto Rico/8/1934(H1N1)) infected in MDCK cells assessed as reduction in virus-induced cytopathogenicity treated 1 hr before virus infection and measured after 48 hrs by SRB assay; format: functional, organism-based
# [12] = system: Influenza A virus; assay: Antiviral activity against Influenza A virus (A/Puerto Rico/8/1934(H1N1)) infected in MDCK cells assessed as reduction in virus-induced cytopathogenicity treated immediately after virus infection and measured after 48 hrs by SRB assay; format: functional, organism-based
# [13] = system: Influenza A virus; assay: Antiviral activity against Influenza A virus (A/Puerto Rico/8/1934(H1N1)) infected in MDCK cells assessed as reduction in virus-induced cytopathogenicity treated 1 hr after virus infection and measured after 48 hrs by SRB assay; format: functional, organism-based
# [14] = system: Influenza A virus; assay: Antiviral activity against Influenza A virus (A/Puerto Rico/8/1934(H1N1)) infected in MDCK cells assessed as reduction in virus-induced cytopathogenicity treated 2 hrs after virus infection and measured after 48 hrs by SRB assay; format: functional, organism-based
# [15] = system: Influenza A virus; assay: Antiviral activity against Influenza A virus (A/Puerto Rico/8/1934(H1N1)) infected in MDCK cells assessed as reduction in virus-induced cytopathogenicity treated 4 hrs after virus infection and measured after 48 hrs by SRB assay; format: functional, organism-based
# [16] = system: Influenza A virus; assay: Antiviral activity against Influenza A virus (A/Puerto Rico/8/1934(H1N1)) infected in MDCK cells assessed as reduction in virus-induced cytopathogenicity treated 7 hrs after virus infection and measured after 48 hrs by SRB assay; format: functional, organism-based
# [17] = system: Influenza A virus; assay: Antiviral activity against Influenza A virus (A/Puerto Rico/8/1934(H1N1)) infected in MDCK cells assessed as reduction in virus-induced cytopathogenicity treated 12 hrs after virus infection and measured after 48 hrs by SRB assay; format: functional, organism-based
# [18] = system: Influenza A virus; assay: Antiviral activity against Influenza A virus (A/Puerto Rico/8/1934(H1N1)) infected in MDCK cells assessed as reduction in virus-induced cytopathogenicity treated 24 hrs after virus infection and measured after 48 hrs by SRB assay; format: functional, organism-based
# [19] = molecular target: Neuraminidase (Influenza A virus (A/Puerto Rico/8/1934(H1N1))) (UniProt P03468); assay: Inhibition of neuraminidase in influenza A virus (A/Puerto Rico/8/1934(H1N1)) assessed as remaining enzyme activity at 0.1 ug/ml pre-incubated for 30 mins before NA-Star substrate addition for 30 mins by luminescence based assay
# [20] = molecular target: Neuraminidase (Influenza A virus (A/Puerto Rico/8/1934(H1N1))) (UniProt P03468); assay: Inhibition of neuraminidase in influenza A virus (A/Puerto Rico/8/1934(H1N1)) assessed as remaining enzyme activity at 1 ug/ml pre-incubated for 30 mins before NA-Star substrate addition for 30 mins by luminescence based assay
# [21] = molecular target: Neuraminidase (Influenza A virus (A/Puerto Rico/8/1934(H1N1))) (UniProt P03468); assay: Inhibition of neuraminidase in influenza A virus (A/Puerto Rico/8/1934(H1N1)) assessed as remaining enzyme activity at 10 ug/ml pre-incubated for 30 mins before NA-Star substrate addition for 30 mins by luminescence based assay
# Chain of Neuraminidase (Influenza A virus (A/Puerto Rico/8/1934(H1N1))) (P03468 whole entry): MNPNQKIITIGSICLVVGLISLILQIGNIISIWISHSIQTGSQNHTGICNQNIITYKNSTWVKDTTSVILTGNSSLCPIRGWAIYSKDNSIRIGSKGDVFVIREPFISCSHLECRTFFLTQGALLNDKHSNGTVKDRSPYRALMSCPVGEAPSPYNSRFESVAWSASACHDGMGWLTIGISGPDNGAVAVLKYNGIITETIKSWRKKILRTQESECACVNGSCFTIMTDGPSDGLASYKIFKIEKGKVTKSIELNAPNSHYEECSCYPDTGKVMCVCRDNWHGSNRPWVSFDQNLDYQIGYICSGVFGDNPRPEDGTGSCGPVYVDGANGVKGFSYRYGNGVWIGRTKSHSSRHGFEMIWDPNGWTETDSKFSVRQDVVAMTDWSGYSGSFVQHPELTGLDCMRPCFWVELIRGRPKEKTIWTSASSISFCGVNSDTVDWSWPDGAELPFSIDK
# Chain of Neuraminidase (Influenza A virus (A/Puerto Rico/8/1934(H1N1)), UniProt P03468) (P03468 whole entry): as above
SMILES,CC50 at 48 h [1],IC50 [2],Ki [3],further results
COc1cc(CN2CCN(c3ccc([N+](=O)[O-])cc3)CC2)c2cc3[n+](cc2c1O)CCc1cc2c(cc1-3)OCO2.[Cl-],1380 µg/mL,> 50 µg/mL,1330 nM,
COc1cc(CN2CCN(c3cccc(Cl)c3)CC2)c2cc3[n+](cc2c1O)CCc1cc2c(cc1-3)OCO2.[Cl-],,29.6 µg/mL,250 nM,
COc1ccc(N2CCN(Cc3cc(OC)c(O)c4c[n+]5c(cc34)-c3cc4c(cc3CC5)OCO4)CC2)c(OC)c1.[Cl-],,47.8 µg/mL,1590 nM,
COc1cc(CN2CCN(c3ccccn3)CC2)c2cc3[n+](cc2c1O)CCc1cc2c(cc1-3)OCO2.[Cl-],185 µg/mL,2.64 µg/mL,170 nM,
COc1cc(CN2CCOCC2)c2cc3[n+](cc2c1O)CCc1cc2c(cc1-3)OCO2.[Cl-],126 µg/mL,44.3 µg/mL,480 nM,
COc1ccc2cc3[n+](cc2c1OC)CCc1cc2c(cc1-3)OCO2 [BERBERINE],70.2 µg/mL,31.3 µg/mL,14300 nM,inhibition at 1 µg/mL [4]: 12.1%; Activity [5]: Active
COc1cc(CN2CCN(C(c3ccccc3)c3ccccc3)CC2)c2cc3[n+](cc2c1O)CCc1cc2c(cc1-3)OCO2.[Cl-],,3.14 µg/mL,490 nM,
COc1cc(CN2CCN(c3ccccc3Cl)CC2)c2cc3[n+](cc2c1O)CCc1cc2c(cc1-3)OCO2.[Cl-],401 µg/mL,1.63 µg/mL,2650 nM,IC50 [6]: 2.98 µg/mL; IC50 [7]: 6.33 µg/mL; IC50 [8]: 4.17 µg/mL; inhibition at 1 µg/mL [4]: 22.1%; Activity [5]: Active
COc1cc(CN2CCN(c3ccc(C)cc3C)CC2)c2cc3[n+](cc2c1O)CCc1cc2c(cc1-3)OCO2.[Cl-],134 µg/mL,60.1 µg/mL,420 nM,
COc1cc(CN2CCN(c3ccccc3[N+](=O)[O-])CC2)c2cc3[n+](cc2c1O)CCc1cc2c(cc1-3)OCO2.[Cl-],230 µg/mL,> 50 µg/mL,1340 nM,
COc1cc(CN2CCCCC2)c2cc3[n+](cc2c1O)CCc1cc2c(cc1-3)OCO2.[Cl-],1640 µg/mL,> 50 µg/mL,680 nM,
COc1cc(CN2CCN(c3ccc(F)cc3F)CC2)c2cc3[n+](cc2c1O)CCc1cc2c(cc1-3)OCO2.[Cl-],73.9 µg/mL,9.92 µg/mL,410 nM,
COc1cc(CN2CCN(c3ccc(OC(F)(F)F)cc3)CC2)c2cc3[n+](cc2c1O)CCc1cc2c(cc1-3)OCO2.[Cl-],312 µg/mL,8.45 µg/mL,490 nM,
COc1cc(CN2CCN(c3cccc(Cl)c3Cl)CC2)c2cc3[n+](cc2c1O)CCc1cc2c(cc1-3)OCO2.[Cl-],63.2 µg/mL,8.37 µg/mL,350 nM,
COc1cc(CN2CCN(c3ccccc3F)CC2)c2cc3[n+](cc2c1O)CCc1cc2c(cc1-3)OCO2.[Cl-],68.8 µg/mL,9.16 µg/mL,5200 nM,
COc1cc(CN2CCN(C(=O)c3ccccc3)CC2)c2cc3[n+](cc2c1O)CCc1cc2c(cc1-3)OCO2.[Cl-],424 µg/mL,> 50 µg/mL,580 nM,
COc1cc(CN2CCN(c3ccc4ccccc4c3)CC2)c2cc3[n+](cc2c1O)CCc1cc2c(cc1-3)OCO2.[Cl-],150 µg/mL,20 µg/mL,240 nM,
CCOC(=O)C1=C[C@@H](OC(CC)CC)[C@H](NC(C)=O)[C@@H](N)C1 [OSELTAMIVIR],,3.19 µg/mL,,IC50 [6]: 12.1 µg/mL; IC50 [7]: 41.9 µg/mL; IC50 [8]: 33.2 µg/mL; IC50 [9]: > 100 µg/mL; IC50 [10]: 71.5 µg/mL; IC50 [11]: 69.8 µg/mL; IC50 [12]: 4.12 µg/mL; IC50 [13]: 6.13 µg/mL; IC50 [14]: 6.05 µg/mL; IC50 [15]: 7.39 µg/mL; IC50 [16]: 12.8 µg/mL; IC50 [17]: 84.3 µg/mL; IC50 [18]: > 100 µg/mL; inhibition at 1 µg/mL [4]: 25.7%; Activity [19]: 41.9%; Activity [20]: 32.9%; Activity [21]: 22.6%; Activity [5]: Active
COc1cc(CN2CCN(c3ccc(Cl)cc3)CC2)c2cc3[n+](cc2c1O)CCc1cc2c(cc1-3)OCO2.[Cl-],480 µg/mL,45.3 µg/mL,960 nM,
COc1cc(CN2CCN(c3ncccn3)CC2)c2cc3[n+](cc2c1O)CCc1cc2c(cc1-3)OCO2.[Cl-],223 µg/mL,2.65 µg/mL,70 nM,
COc1cc(CN2CCN(c3ccc(C(F)(F)F)cc3)CC2)c2cc3[n+](cc2c1O)CCc1cc2c(cc1-3)OCO2.[Cl-],,10 µg/mL,1590 nM,
COc1cc(Cn2c3ccccc3c3ccccc32)c2cc3[n+](cc2c1O)CCc1cc2c(cc1-3)OCO2.[Cl-],62.6 µg/mL,9.79 µg/mL,490 nM,
COc1cc(CN2CCN(c3ccc(C)cc3)CC2)c2cc3[n+](cc2c1O)CCc1cc2c(cc1-3)OCO2.[Cl-],68.5 µg/mL,1.48 µg/mL,290 nM,IC50 [6]: 2.13 µg/mL; IC50 [7]: 6.17 µg/mL; IC50 [8]: 5.1 µg/mL; inhibition at 1 µg/mL [4]: 25.3%; Activity [5]: Active
COc1cc(CN2CCN(c3ccc(F)cc3)CC2)c2cc3[n+](cc2c1O)CCc1cc2c(cc1-3)OCO2.[Cl-],72.6 µg/mL,0.87 µg/mL,480 nM,IC50 [6]: 1.15 µg/mL; IC50 [7]: 4.12 µg/mL; IC50 [8]: 3.12 µg/mL; IC50 [9]: 52.4 µg/mL; IC50 [10]: 21.3 µg/mL; IC50 [11]: 3.4 µg/mL; IC50 [12]: 0.89 µg/mL; IC50 [13]: 1.22 µg/mL; IC50 [14]: 1.19 µg/mL; IC50 [15]: 1.75 µg/mL; IC50 [16]: 9.38 µg/mL; IC50 [17]: 23.2 µg/mL; IC50 [18]: > 100 µg/mL; inhibition at 1 µg/mL [4]: 48.3%; Activity [19]: 43.1%; Activity [20]: 23.4%; Activity [21]: 16.6%; Activity [5]: Active
